{"source": "patent US20090221522A1", "about": "“METHODS TO CORRECT GENE SET EXPRESSION PROFILES TO DRUG SENSITIVITY” (The Johns Hopkins University, priority 2008, published 2009)", "test_system": "direct pancreatic cancer xenografts (fine needle aspiration cells)", "test": "Ex vivo perturbability assay, low-density microarray RT-PCR", "format": "cell-based", "design": "key to RRM1 gene expression / NFKB1 gene expression / BNIP3L gene expression / VHL gene expression / DCK gene expression / HIF1B gene expression / IGF1R gene expression / MAPK1 gene expression / MAP2K2 gene expression / JUN gene expression / IHH gene expression: % of untreated control (treated sample normalized to untreated)", "settings": "treated normalized to untreated control", "text": "Direct pancreatic cancer derived xenografts: Resected pancreatic adenocarcinomas are routinely implanted in nude mice at the Johns Hopkins Medical Institutions as a method to obtain enriched populations of neoplastic cells under an IRB-approved protocol from residual pancreatic cancer tumors. Tumor specimens from Whipple resection specimens were divided into 2-3 mm^3 pieces in antibiotic-containing RPMI media. Pieces of non-necrotic tissue were selected and immersed in Matrigel. Under anesthesia with isofluorane, tumors were implanted into five-to-six week-old female athymic (nu/nu) mice purchased from Harlan (Harlan Laboratories, Washington, D.C.). This research protocol was approved by the Johns Hopkins University Animal Use and Care Committee arid animals were maintained in accordance to guidelines of the American Association of Laboratory Animal Care. Tumors were propagated to subsequent cohorts of mice until a sufficient number were available for drug testing.\nFine needle aspiration (FNA): FNAs on mice were performed according to standard cytopathologic practice using 10 cc syringes and 25-gauge needles. The procedure was performed under inhaled general anesthesia with isofluorane. During each FNA procedure the first pass was smeared onto glass slides and used for morphologic analysis and quality control, (DiffQuik™ and Papanicoloau), and the second through sixth passes were used to acquire viable cells.\nEx vivo assay: FNA passes used to acquire viable cells were immediately transferred into 10 ml sterile prewarmed complete RPMI-1640 culture medium containing 10% FBS, penicillin (200 ug/ml), and streptomycin (200 ug/ml). Equivalent aliquots of cells were seeded in two wells of a 6-well polypropylene microplate. […] Following treatment, non-adherent and adherent cells (collected by scraping) were pooled together in a 1.5 mL microcentrifuge tube and centrifuged at 500 g for 5 mm at 4° C. After washing with PBS, cells were lysed in 100 μL of ice-cold RLT.\nRNA extraction and cDNA generation: Total RNA was extracted from cells using the RNeasy™ Mini Kit (Qiagen, Valencia, Calif.) following the manufacturer's instructions. cDNA was synthesized using iScript cDNA synthesis kit (Bio-Rad) following the manufacturer's instructions.\nLow-density micro arrays (LDMA): The samples were run in a customized assay with a 384-well format (ABI, Foster City, Calif.), where the expression of 45 to 381 relevant genes can be quantitatively tested. For this example, the array was designed with 8 replicated sections containing 48 wells, with primers of one gene per well: 3 housekeeping genes (HK: UBC, HPRT, SDHA), and 45 genes of interest. 50 μL of cDNA plus 50 μL of ABI mastermix were loaded onto each of two contiguous lanes to have duplicated readouts of every sample, and were run by real-time reverse transcriptase PCR (RT-PCR). The amount of change in the target genes was calculated by comparing the threshold cycle (CT) of each gene to the geometric mean of the CTs of the HK genes. Relative expression of the target genes was estimated using the formula: relative expression=2−^ΔCT, where ΔCT=CT (target gene)−CT (average of the 3 HK genes). The experiment was run in duplicate and mean values are analyzed.\nData analysis: The expression level of each gene in the treated sample was normalized to that of the untreated control. A significant change was defined when the gene expression either increases two-fold or more (>200%), or decreases to half or more (<50%). The rest is considered uninformative.", "data": [{"smiles": "Nc1ccn([C@@H]2O[C@H](CO)[C@@H](O)C2(F)F)c(=O)n1", "note": "[gemcitabine]", "values": [{"measurement": "MAPK3 gene expression", "setting": "case #3", "result": 109}, {"measurement": "MDM2 gene expression", "setting": "case #3", "result": 137}, {"measurement": "MSLN gene expression", "setting": "case #3", "result": 91}, {"measurement": "NFKB1 gene expression", "setting": "case #3", "result": 94}, {"measurement": "NOTCH1 gene expression", "setting": "case #3", "result": 132}, {"measurement": "NOTCH2 gene expression", "setting": "case #3", "result": 103}, {"measurement": "PLK1 gene expression", "setting": "case #3", "result": 36}, {"measurement": "PSCA gene expression", "setting": "case #3", "result": 115}, {"measurement": "PTCH gene expression", "setting": "case #3", "result": 53}, {"measurement": "RRM1 gene expression", "setting": "case #3", "result": 81}, {"measurement": "SHH gene expression", "setting": "case #3", "result": 65}, {"measurement": "Survivin gene expression", "setting": "case #3", "result": 58}, {"measurement": "TGFA gene expression", "setting": "case #3", "result": 92}, {"measurement": "VEGF gene expression", "setting": "case #3", "result": 86}, {"measurement": "VHL gene expression", "setting": "case #3", "result": 118}, {"measurement": "p21 gene expression", "setting": "case #3", "result": 99}, {"measurement": "AXIN2 gene expression", "setting": "case #4", "result": 142}, {"measurement": "BAX gene expression", "setting": "case #4", "result": 100}, {"measurement": "BNIP3L gene expression", "setting": "case #4", "result": 115}, {"measurement": "BRAF gene expression", "setting": "case #4", "result": 175}, {"measurement": "BRCA1 gene expression", "setting": "case #4", "result": 343}, {"measurement": "CCND1 gene expression", "setting": "case #4", "result": 171}, {"measurement": "CXCR4 gene expression", "setting": "case #4", "result": 13}, {"measurement": "CyclinB1 gene expression", "setting": "case #4", "result": 124}, {"measurement": "DCK gene expression", "setting": "case #4", "result": 176}, {"measurement": "EGFR gene expression", "setting": "case #4", "result": 54}, {"measurement": "ERCC1 gene expression", "setting": "case #4", "result": 94}, {"measurement": "FOS gene expression", "setting": "case #4", "result": 108}, {"measurement": "GADD45A gene expression", "setting": "case #4", "result": 78}, {"measurement": "GLI2 gene expression", "setting": "case #4", "result": 11}, {"measurement": "HIF1A gene expression", "setting": "case #4", "result": 146}, {"measurement": "HIF1B gene expression", "setting": "case #4", "result": 56}, {"measurement": "IGF1R gene expression", "setting": "case #4", "result": 41}, {"measurement": "IGFBP3 gene expression", "setting": "case #4", "result": 130}, {"measurement": "IHH gene expression", "setting": "case #4", "result": 92}, {"measurement": "JUN gene expression", "setting": "case #4", "result": 83}, {"measurement": "MAP2K2 gene expression", "setting": "case #4", "result": 146}, {"measurement": "MAPK1 gene expression", "setting": "case #4", "result": 68}, {"measurement": "MAPK3 gene expression", "setting": "case #4", "result": 108}, {"measurement": "MDM2 gene expression", "setting": "case #4", "result": 43}, {"measurement": "MSLN gene expression", "setting": "case #4", "result": 89}, {"measurement": "NFKB1 gene expression", "setting": "case #4", "result": 104}, {"measurement": "NOTCH1 gene expression", "setting": "case #4", "result": 134}, {"measurement": "NOTCH2 gene expression", "setting": "case #4", "result": 92}, {"measurement": "PLK1 gene expression", "setting": "case #4", "result": 15}, {"measurement": "PSCA gene expression", "setting": "case #4", "result": 81}, {"measurement": "PTCH gene expression", "setting": "case #4", "result": 93}, {"measurement": "RRM1 gene expression", "setting": "case #4", "result": 79}, {"measurement": "SHH gene expression", "setting": "case #4", "result": 91}, {"measurement": "Survivin gene expression", "setting": "case #4", "result": 166}, {"measurement": "TGFA gene expression", "setting": "case #4", "result": 85}, {"measurement": "VEGF gene expression", "setting": "case #4", "result": 103}, {"measurement": "VHL gene expression", "setting": "case #4", "result": 127}, {"measurement": "p21 gene expression", "setting": "case #4", "result": 102}, {"measurement": "AXIN2 gene expression", "setting": "case #5", "result": 210}, {"measurement": "BAX gene expression", "setting": "case #5", "result": 109}, {"measurement": "BNIP3L gene expression", "setting": "case #5", "result": 90}, {"measurement": "BRAF gene expression", "setting": "case #5", "result": 146}, {"measurement": "BRCA1 gene expression", "setting": "case #5", "result": 95}, {"measurement": "CCND1 gene expression", "setting": "case #5", "result": 141}, {"measurement": "CXCR4 gene expression", "setting": "case #5", "result": 229}, {"measurement": "CyclinB1 gene expression", "setting": "case #5", "result": 53}, {"measurement": "DCK gene expression", "setting": "case #5", "result": 132}, {"measurement": "EGFR gene expression", "setting": "case #5", "result": 71}, {"measurement": "ERCC1 gene expression", "setting": "case #5", "result": 105}, {"measurement": "FOS gene expression", "setting": "case #5", "result": 112}, {"measurement": "GADD45A gene expression", "setting": "case #5", "result": 121}, {"measurement": "GLI2 gene expression", "setting": "case #5", "result": 118}, {"measurement": "HIF1A gene expression", "setting": "case #5", "result": 108}, {"measurement": "HIF1B gene expression", "setting": "case #5", "result": 65}, {"measurement": "IGF1R gene expression", "setting": "case #5", "result": 61}, {"measurement": "IGFBP3 gene expression", "setting": "case #5", "result": 122}, {"measurement": "IHH gene expression", "setting": "case #5", "result": 141}, {"measurement": "JUN gene expression", "setting": "case #5", "result": 135}, {"measurement": "MAP2K2 gene expression", "setting": "case #5", "result": 151}, {"measurement": "MAPK1 gene expression", "setting": "case #5", "result": 86}, {"measurement": "MAPK3 gene expression", "setting": "case #5", "result": 95}, {"measurement": "MDM2 gene expression", "setting": "case #5", "result": 73}, {"measurement": "MSLN gene expression", "setting": "case #5", "result": 100}, {"measurement": "NFKB1 gene expression", "setting": "case #5", "result": 163}, {"measurement": "NOTCH1 gene expression", "setting": "case #5", "result": 89}, {"measurement": "NOTCH2 gene expression", "setting": "case #5", "result": 56}, {"measurement": "PLK1 gene expression", "setting": "case #5", "result": 21}, {"measurement": "PSCA gene expression", "setting": "case #5", "result": 102}, {"measurement": "PTCH gene expression", "setting": "case #5", "result": 48}, {"measurement": "RRM1 gene expression", "setting": "case #5", "result": 92}, {"measurement": "SHH gene expression", "setting": "case #5", "result": 113}, {"measurement": "Survivin gene expression", "setting": "case #5", "result": 67}, {"measurement": "TGFA gene expression", "setting": "case #5", "result": 97}, {"measurement": "VEGF gene expression", "setting": "case #5", "result": 107}, {"measurement": "VHL gene expression", "setting": "case #5", "result": 79}, {"measurement": "p21 gene expression", "setting": "case #5", "result": 143}]}]}
